Several values for one entry are separate records, joined by “and”; a condition that tells them apart may be missing. Equal entries are not always repeated. Where two headings read alike, the source gives them in different places.
Key:
SARS-CoV-2 NSP3 Mac1 [1] = biological target: T1, SARS-CoV-2 NSP3 Mac1 (Severe acute respiratory syndrome coronavirus 2, UniProt P0DTD1); type: binding; parameters: contains a conserved macrodomain enzyme (Mac1); details: for Spearman est (compound concentration vs apparent Tm): DSF dose responsiveness, 1 µM nsp3 mac1, adj p given
How it was run: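 Differential scanning fluorimetry using 5 µM Fluorescent Yellow dye in place of SYPRO Orange. Compounds run in triplicate at seven two-fold dilutions from 1,000 or 100 μM, with ΔTma taken against a DMSO control in the same plate region. Dose-response significance assessed by Spearman's coefficient between concentration and ΔTma.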

SARS-CoV-2 NSP3 Mac1 [2] = biological target: T1, SARS-CoV-2 NSP3 Mac1; type: binding; details: for Refined occupancy: ligand occupancy after refinement (phenix.refine)
[3] = PanDDA event map, 1 minus background density correction, crystal soaking of Mac1
[4] = ligand modeled from this dataset, compound concentration 100 mM
[5] = true hit = binding in crystallographic soaking or the HTRF-based binding assay
[6] = maximal thermal upshift vs DMSO control
[7] = overall hit flag: binding in crystallographic soaking or the HTRF-based binding assay
[8] = PanDDA 1-BDC (background density correction) of the event, crystal soak 100 mM, PanDDA run dmso_34
[9] = crystal soak, compound concentration 100 mM, PanDDA run dmso_34, series docking_lead-like_1
[10] = ligand modeled in the crystal structure, crystal soak 100 mM, PanDDA run dmso_34

SMILES	Spearman est (compound concentration vs apparent Tm) (SARS-CoV-2 NSP3 Mac1 [1])	DSF max dTma (SARS-CoV-2 NSP3 Mac1 [1]; maximal thermal upshift)	Refined occupancy (SARS-CoV-2 NSP3 Mac1 [2]; crystal soaking of Mac1)	HIT* (SARS-CoV-2 NSP3 Mac1 [2]; [5])	1-BDC (SARS-CoV-2 NSP3 Mac1 [2]; [3])	DSF max dTma (SARS-CoV-2 NSP3 Mac1 [1]; [6]) [°C]	HIT* (SARS-CoV-2 NSP3 Mac1 [2]; [7])	other results
CC1C(C(=O)O)CCCN1S(=O)(=O)c1c[nH]c2ncc(Cl)cc12 (stereo not drawn) [REAL300016493575]	−0.16	0.15 ˚C	18	Y				1-BDC (PanDDA) (SARS-CoV-2 NSP3 Mac1 [2]; [3]): 0.09; Modeled? (SARS-CoV-2 NSP3 Mac1 [2]; [4]): TRUE
CC1(C)CCC(C(=O)O)CN1C(=O)c1ncnc2[nH]ccc12 (stereo not drawn) [FRESH00012962804]	0.54	0.62 ˚C	44	Y	0.22			1-BDC (SARS-CoV-2 NSP3 Mac1 [2]; PanDDA event map, 1-BDC of the hit dataset, crystal soak, compound concentration 100 mM, listed as F2804): 0.32 and 0.28
Cc1noc(-c2ccnc(-c3ccnc4[nH]ccc34)c2)n1 [ZINC001240411747]	−0.16	0.04 ˚C	14	Y				1-BDC (PanDDA) (SARS-CoV-2 NSP3 Mac1 [2]; [3]): 0.07; Modeled? (SARS-CoV-2 NSP3 Mac1 [2]; [4]): TRUE
Cc1ccc([C@@H]2C[C@@H](C)CCN2C(=O)c2ncnc3[nH]ccc23)o1 [ZINC000611664196]	−0.75	0.14 ˚C	10	Y	0.05			1-BDC (SARS-CoV-2 NSP3 Mac1 [2]; PanDDA 1-BDC value of the event, crystal soak, compound concentration 100 mM, per dataset): 0.05; PanDDA hit? (SARS-CoV-2 NSP3 Mac1 [2]; crystal soak, compound concentration 100 mM, per dataset): TRUE; Modeled? (SARS-CoV-2 NSP3 Mac1 [2]; ligand modeled in the crystal structure, crystal soak, compound concentration 100 mM, per dataset): TRUE
CN(Cc1nnc2c(=O)[nH]ccn12)c1ccc2nccnc2n1 [ZINC001472868186]	0.79		30		0.15	0.81	Y	1-BDC (SARS-CoV-2 NSP3 Mac1 [2]; PanDDA event map, crystal soak, Compound_concentration 30 mM, PanDDA run dmso_34): 0.15; PanDDA hit? (SARS-CoV-2 NSP3 Mac1 [2]; crystal soak, Compound_concentration 30 mM, Echo dispense 40 nl, PanDDA run dmso_34): TRUE; Modeled? (SARS-CoV-2 NSP3 Mac1 [2]; ligand modeled in structure, crystal soak, Compound_concentration 30 mM): TRUE
CC1CC(C(=O)O)N1C(=O)c1cc(O)nc2ccc(F)cc12.O=C(O)C(F)(F)F (stereo not drawn) [REAL300007260658]	−0.11	0.37 ˚C	22	Y	0.11			1-BDC (SARS-CoV-2 NSP3 Mac1 [2]; PanDDA event map, 1-BDC of the hit dataset, crystal soak, compound concentration 100 mM): 0.18
CN(CCCC(=O)O)C(=O)c1ncnc2[nH]ccc12 [REAL250002155324]	−0.27	0.12 ˚C	24	Y	0.12			
O=C1CCCN1CCSc1ncnc2[nH]cnc12 [Z9920]						0.95	Y	
c1csc(CC2CCN(c3ncnc4[nH]ccc34)C2)n1 (stereo not drawn) [Z6891]						0.15	Y	
Cc1nc(Cn2cnc3c(N)nc(N)nc32)cs1 [Z8569]						0.53	Y	
Nc1nc(N)c2ncn(Cc3csc(C4CC4)n3)c2n1 [Z8585]						1.3	Y	
Nc1ncnc2c1ncn2Cc1cccc(C(F)(F)F)c1 [ZINC000110510893]	0.5		70		0.35	0.5	Y	1-BDC (SARS-CoV-2 NSP3 Mac1 [2]; [8]): 0.35; PanDDA hit? (SARS-CoV-2 NSP3 Mac1 [2]; [9]): TRUE; Modeled? (SARS-CoV-2 NSP3 Mac1 [2]; [10]): TRUE
N#Cc1ccc(OCCn2cnc3c(N)ncnc32)cc1 [ZINC000043461211]	0.26		62		0.31	0.45	Y	1-BDC (SARS-CoV-2 NSP3 Mac1 [2]; [8]): 0.31; PanDDA hit? (SARS-CoV-2 NSP3 Mac1 [2]; [9]): TRUE; Modeled? (SARS-CoV-2 NSP3 Mac1 [2]; [10]): TRUE
